Test results from patent US10472347B2, “Aminopyrazine compounds with A2A antagonist properties” (Merck Sharp & Dohme Corp., priority 2014, dated 2019).
pKi: −log10 of the molar value.

Target: T1, human A2a receptor (Homo sapiens, UniProt P29274)
T1 construct: purchased Perkin-Elmer RBHA2AM400UA; host or cells: HEK293 cells (membranes)
Assay: A2a competition binding assay, Scintillation Proximity technology
Conditions: membranes from HEK293 cells expressing human A2a receptor; Ki by Cheng-Prusoff equation
Summary of the method: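 Membranes from HEK293 cells expressing human A2a, adenosine deaminase-treated, incubated 1 h at room temperature with compound (3000 to 0.15 nM) and 0.5 nM tritiated pyrazolotriazolopyrimidine radioligand on WGA SPA beads in Ca/Mg-free PBS + 10 mM MgCl2. Non-specific binding with 1 μM CGS15943; Ki by Cheng-Prusoff.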

T1 sequence (P29274 whole entry): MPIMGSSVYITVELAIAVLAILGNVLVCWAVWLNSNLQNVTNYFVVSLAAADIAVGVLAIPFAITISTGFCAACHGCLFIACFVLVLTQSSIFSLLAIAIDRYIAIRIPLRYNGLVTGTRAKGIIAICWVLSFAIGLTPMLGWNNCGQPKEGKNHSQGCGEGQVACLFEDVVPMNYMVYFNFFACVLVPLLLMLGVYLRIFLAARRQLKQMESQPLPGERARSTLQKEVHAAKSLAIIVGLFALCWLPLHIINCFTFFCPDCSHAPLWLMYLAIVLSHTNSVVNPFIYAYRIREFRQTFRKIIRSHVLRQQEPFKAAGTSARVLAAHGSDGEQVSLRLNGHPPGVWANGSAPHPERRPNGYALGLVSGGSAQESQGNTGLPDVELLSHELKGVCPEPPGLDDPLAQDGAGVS

Structure (SMILES) | pKi
Cc1nc(C(=O)NCc2ncc(C3CC3)cn2)c(N)nc1-c1ncco1 [Ex-197, 3-amino-N-[(5-cyclopropylpyrimidin-2-yl)methyl]-6-methyl-5-(1,3-oxazol-2-yl)pyrazine-2-carboxamide] | 8.20
Cc1nc(C(=O)NCc2nccc3ncn(C)c23)c(N)nc1-c1ncco1 [Ex-198, 3-amino-6-methyl-N-[(3-methyl-3H-imidazo[4,5-c]pyridin-4-yl)methyl]-5-(1,3-oxazol-2-yl)pyrazine-2-carboxamide] | 8.06
CCc1cnc(CNC(=O)c2nc(C)c(-c3ncco3)nc2N)nc1 [Ex-199, 3-amino-N-[(5-ethylpyrimidin-2-yl)methyl]-6-methyl-5-(1,3-oxazol-2-yl)pyrazine-2-carboxamide] | 8.03
Cc1nc(C(=O)N[C@H]2CCc3cc(F)ccc32)c(N)nc1-c1ncco1 [Ex-200, 3-amino-N-[(1S)-5-fluoro-2,3-dihydro-1H-inden-1-yl]-6-methyl-5-(1,3-oxazol-2-yl)pyrazine-2-carboxamide] | 7.83
Cc1nc(C(=O)N[C@H]2CCc3ccc(F)cc32)c(N)nc1-c1ncco1 [Ex-201, 3-amino-N-[(1S)-6-fluoro-2,3-dihydro-1H-inden-1-yl]-6-methyl-5-(1,3-oxazol-2-yl)pyrazine-2-carboxamide] | 9.20
Cc1nc(C(=O)N[C@@H]2CCC[C@H]2O)c(N)nc1-c1ncco1 [Ex-202, 3-amino-N-[(1R,2R)-2-hydroxycyclopentyl]-6-methyl-5-(1,3-oxazol-2-yl)pyrazine-2-carboxamide] | 8.65
Cc1nc(C(=O)N[C@H]2CCC[C@H]2F)c(N)nc1-c1ncco1 [Ex-203, 3-amino-N-[(1S,2R)-2-fluorocyclopentyl]-6-methyl-5-(1,3-oxazol-2-yl)pyrazine-2-carboxamide] | 8.46
Cc1nc(C(=O)N[C@@H]2CCC[C@H]2N(C)C)c(N)nc1-c1ncco1 [Ex-204, 3-amino-N-[(1R,2R)-2-(dimethylamino)cyclopentyl]-6-methyl-5-(1,3-oxazol-2-yl)pyrazine-2-carboxamide] | 5.82
Cc1nc(C(=O)N(C)[C@@H]2CCC[C@H]2O)c(N)nc1-c1ncco1 [Ex-205, 3-amino-N-[(1R,2R)-2-hydroxycyclopentyl]-N,6-dimethyl-5-(1,3-oxazol-2-yl)pyrazine-2-carboxamide] | 6.41
Cc1nc(C(=O)N[C@@H]2CCC[C@H]2F)c(N)nc1-c1ncco1 [Ex-206, 3-amino-N-[(1R,2R)-2-fluorocyclopentyl]-6-methyl-5-(1,3-oxazol-2-yl)pyrazine-2-carboxamide] | 8.43
Cc1nc(C(=O)N[C@H]2[C@H](C)CC[C@H]2O)c(N)nc1-c1ncco1 [Ex-207, 3-amino-N-[(1S,2R,5R)-2-hydroxy-5-methylcyclopentyl]-6-methyl-5-(1,3-oxazol-2-yl)pyrazine-2-carboxamide] | 8.53
C#CC[C@H]1CCC[C@H]1NC(=O)c1nc(C)c(-c2ncco2)nc1N [Ex-208, 3-amino-6-methyl-5-(1,3-oxazol-2-yl)-N-[(1R,2R)-2-prop-2-yl-1-ylcyclopentyl]pyrazine-2-carboxamide] | 9.01
C#C[C@H]1CCC[C@@H]1NC(=O)c1nc(C)c(-c2ncco2)nc1N [Ex-209, 3-amino-N-[(1S,2R)-2-ethynylcyclopentyl]-6-methyl-5-(1,3-oxazol-2-yl)pyrazine-2-carboxamide] | 8.53
Cc1nc(C(=O)NC2CCCC2F)c(N)nc1-c1ncco1 (stereo not drawn) [Ex-210, 3-amino-N-(2-fluorocyclopentyl)-6-methyl-5-(1,3-oxazol-2-yl)pyrazine-2-carboxamide] | 8.85
Cc1nc(C(=O)N[C@H]2CCC[C@@H]2O)c(N)nc1-c1ncco1 [Ex-211, 3-amino-N-[(1S,2S)-2-hydroxycyclopentyl]-6-methyl-5-(1,3-oxazol-2-yl)pyrazine-2-carboxamide] | 8.13
Cc1nc(C(=O)N[C@@H]2CCC[C@@H]2O)c(N)nc1-c1ncco1 [Ex-212, 3-amino-N-[(1R,2S)-2-hydroxycyclopentyl]-6-methyl-5-(1,3-oxazol-2-yl)pyrazine-2-carboxamide] | 7.00
Cc1nc(C(=O)N[C@@H]2C[C@H]3CC[C@@H]2C3)c(N)nc1-c1ncco1 [Ex-213, 3-amino-N-[(1R,2R,4S)-bicyclo[2.2.1]hept-2-yl]-6-methyl-5-(1,3-oxazol-2-yl)pyrazine-2-carboxamide] | 9.38
Cc1nc(C(=O)NCc2nccc3c2ccn3C)c(N)nc1-c1ncco1 [Ex-214] | 9.16
Cc1nc(C(=O)NCc2nccnc2C(F)(F)F)c(N)nc1-c1ncco1 [Ex-215, 3-amino-6-methyl-5-(1,3-oxazol-2-yl)-N-{[3-(trifluoromethyl)pyrazin-2-yl]methyl}pyrazine-2-carboxamide] | 8.84
CCn1cc2cccc(CNC(=O)c3nc(C)c(-c4ncco4)nc3N)c2n1 [Ex-216, 3-amino-N-[(2-ethyl-2H-indazol-7-yl)methyl]-6-methyl-5-(1,3-oxazol-2-yl)pyrazine-2-carboxamide] | 9.91
Cc1nc(C(=O)NCc2cccc3c2ccn3CC(F)F)c(N)nc1-c1ncco1 [Ex-217, 3-amino-N-{[1-(2,2-difluoroethyl)-1H-indol-4-yl]methyl}-6-methyl-5-(1,3-oxazol-2-yl)pyrazine-2-carboxamide] | 8.85
Cc1nc(C(=O)NCc2cccc3c2ncn3C)c(N)nc1-c1ncco1 [Ex-218, 3-amino-6-methyl-N-[(1-methyl-1H-benzimidazol-4-yl)methyl]-5-(1,3-oxazol-2-yl)pyrazine-2-carboxamide] | 9.51
Cc1nc(C(=O)NCc2cccc3ncn(C)c23)c(N)nc1-c1ncco1 [Ex-219, 3-amino-6-methyl-N-[(1-methyl-1H-benzimidazol-7-yl)methyl]-5-(1,3-oxazol-2-yl)pyrazine-2-carboxamide] | 7.44
Cc1nc(C(=O)N[C@H]2CCc3cc(Cl)ccc32)c(N)nc1-c1ncco1 [Ex-222] | 8.04
Cc1nc(C(=O)NC2CC(O)c3cccnc32)c(N)nc1-c1ncco1 (stereo not drawn) [Ex-223, 3-amino-N-(5-hydroxy-6,7-dihydro-5H-cyclopenta[b]pyridin-7-yl)-6-methyl-5-(1,3-oxazol-2-yl)pyrazine-2-carboxamide] | 8.53
Cc1nc(C(=O)NCc2ncccc2CF)c(N)nc1-c1ncco1 [Ex-224, 3-amino-N-{[3-(fluoromethyl)pyridin-2-yl]methyl}-6-methyl-5-(1,3-oxazol-2-yl)pyrazine-2-carboxamide] | 9.70
Cc1nc(C(=O)NCc2ncccc2CO)c(N)nc1-c1ncco1 [Ex-225, 3-amino-N-{[3-(hydroxymethyl)pyridin-2-yl]methyl}-6-methyl-5-(1,3-oxazol-2-yl)pyrazine-2-carboxamide] | 9.75
Cc1nc(C(=O)NCc2cccc3c2cnn3CC(F)F)c(N)nc1-c1ncco1 [Ex-228, 3-amino-N-{[1-(2,2-difluoroethyl)-1H-indazol-4-yl]methyl}-6-methyl-5-(1,3-oxazol-2-yl)pyrazine-2-carboxamide] | 8.76
Cc1nc(C(=O)NCc2cccc3c2ncn3CC2CC2)c(N)nc1-c1ncco1 [Ex-229, 3-amino-N-{[1-(cyclopropylmethyl)-1H-benzimidazol-4-yl]methyl}-6-methyl-5-(1,3-oxazol-2-yl)pyrazine-2-carboxamide] | 9.45
Cc1nc(C(=O)NC2Cc3ccccc3C2)c(N)nc1-c1ncco1 [Ex-235, 3-amino-N-(2,3-dihydro-1H-inden-2-yl)-6-methyl-5-(1,3-oxazol-2-yl)pyrazine-2-carboxamide] | 9.61
